Read-outs that look alike come from different tables or passages of the source.
Tests used:
[1] = molecular target: isolated recombinant JAK1 kinase domain (Homo sapiens (Human), UniProt P23458); assay: JAK1 enzyme assay (Caliper LabChip, Ki); format: biochemical
Experimental: The activity of the isolated recombinant JAK1 and JAK2 kinase domain was measured by monitoring phosphorylation of a peptide derived from JAK3 ([…] fluorescently labeled on the N-terminus with 5-carboxyfluorescein) using the Caliper LabChip R technology (Caliper Life Sciences, Hopkinton, Mass.).

[2] = tested on: JAK1-dependent STAT6 phosphorylation in BEAS-2B human bronchial epithelial cells; assay: JAK1 pathway assay: IL-13 stimulated STAT6 phosphorylation in BEAS-2B cells; format: cell-based; settings: BEAS-2B cells, IL-13 stimulation, read-out: IL-13 p-STAT6 BEAS-2B IC50
Procedure, shortened: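 BEAS-2B bronchial epithelial cells plated one day before, run in complete growth medium. Phospho-STAT6 in lysates measured by MesoScale Discovery; EC50 reported.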

[3] = molecular target: isolated recombinant JAK2 kinase domain (Homo sapiens (Human), UniProt O60674); assay: JAK2 enzyme assay (Caliper LabChip, Ki); settings: read-out: JAK2 Ki
isolated recombinant JAK2 kinase domain, sequence (O60674 849-1124): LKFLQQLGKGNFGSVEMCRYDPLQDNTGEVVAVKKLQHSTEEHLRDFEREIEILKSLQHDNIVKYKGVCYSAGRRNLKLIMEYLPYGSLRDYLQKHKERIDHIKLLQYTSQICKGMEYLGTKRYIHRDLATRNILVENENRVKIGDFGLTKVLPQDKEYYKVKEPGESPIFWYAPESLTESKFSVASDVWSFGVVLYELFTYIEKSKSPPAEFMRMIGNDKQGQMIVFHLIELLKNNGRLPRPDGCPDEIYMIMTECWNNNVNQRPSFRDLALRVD
Experimental: JAK Enzyme Assays were Carried Out as Follows:
The activity of the isolated recombinant JAK1 and JAK2 kinase domain was measured by monitoring phosphorylation of a peptide derived from JAK3 ([sequence] fluorescently labeled on the N-terminus with 5-carboxyfluorescein) using the Caliper LabChip R technology (Caliper Life Sciences, Hopkinton, Mass.). […] After termination of the kinase reaction, the proportion of phosphorylated product was determined as a fraction of total peptide substrate using the Caliper LabChip R 3000 according to the manufacturer's specifications.

isolated recombinant JAK1 kinase domain, sequence (P23458 875-1153): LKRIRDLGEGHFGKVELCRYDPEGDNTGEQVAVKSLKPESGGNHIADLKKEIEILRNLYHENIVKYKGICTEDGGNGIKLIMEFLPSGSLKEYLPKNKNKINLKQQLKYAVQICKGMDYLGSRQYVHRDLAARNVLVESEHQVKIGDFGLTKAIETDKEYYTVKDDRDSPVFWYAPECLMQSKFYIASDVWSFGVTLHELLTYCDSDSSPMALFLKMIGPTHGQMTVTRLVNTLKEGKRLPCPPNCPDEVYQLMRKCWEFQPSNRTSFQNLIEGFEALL

Row | Compound | Ki [1] [nM] | Ki [3] [nM] | IC50 ([2]; Homo sapiens, BEAS-2B) [nM] | IC50 [2] [nM]
1 | CN1CCC[C@H]1Cn1cc(NC(=O)c2cnn3cccnc23)c(-c2cc3cn[nH]c3cc2OC(F)F)n1 [Example 76, N-[3-[6-(difluoromethoxy)-1H-indazol-5-yl]-1-[[(2S)-1-methylpyrrolidin-2-yl]methyl]pyrazol-4-yl]pyrazolo[1,5-a]pyrimidine-3-carboxamide] | 0.48 | 0.53 | 17 | 
2 | CN1CCC[C@@H]1Cn1cc(NC(=O)c2cnn3cccnc23)c(-c2cc3cn[nH]c3cc2OC(F)F)n1 [Example 77, N-[3-[6-(difluoromethoxy)-1H-indazol-5-yl]-1-[[(2R)-1-methylpyrrolidin-2-yl]methyl]pyrazol-4-yl]pyrazolo[1,5-a]pyrimidine-3-carboxamide] | 0.28 | 0.43 | 9 | 
3 | O=C(Nc1cn(CCN[C@@H]2CCOC2)nc1-c1cc2c(cc1OC(F)F)NCCS2)c1cnn2cccnc12 [Example 78, N-[3-[6-(difluoromethoxy)-3,4-dihydro-2H-1,4-benzothiazin-7-yl]-1-[2-[[(3R)-tetrahydrofuran-3-yl]amino]ethyl]pyrazol-4-yl]pyrazolo[1,5-a]pyrimidine-3-carboxamide] | 0.19 | 0.1 | 13 | 
4 | CN(C)CCn1cc(NC(=O)c2cnn3cccnc23)c(-c2cc3c(cc2OC(F)F)NCCS3)n1 [Example 82, N-[3-[6-(difluoromethoxy)-3,4-dihydro-2H-1,4-benzothiazin-7-yl]-1-[2-(dimethylamino)ethyl]pyrazol-4-yl]pyrazolo[1,5-a]pyrimidine-3-carboxamide] | 0.23 | 0.16 | 7 | 
5 | O=C(Nc1cn(CCN2CCOCC2)nc1-c1cc2ccccc2cc1OC(F)F)c1cnn2cccnc12 [Example 85, N-[3-[3-(difluoromethoxy)-2-naphthyl]-1-(2-morpholinoethyl)pyrazol-4-yl]pyrazolo[1,5-a]pyrimidine-3-carboxamide] | 1.32 | 1.69 | 34 | 
6 | Cn1cc(NC(=O)c2cnn3cccnc23)c(-c2cc3c(cc2OC(F)F)NCCS3)n1 [Example 88, N-[3-[6-(difluoromethoxy)-3,4-dihydro-2H-1,4-benzothiazin-7-yl]-1-methyl-pyrazol-4-yl]pyrazolo[1,5-a]pyrimidine-3-carboxamide] | 0.08 | 0.1 | 5 | 
7 | Cn1cc(NC(=O)c2cnn3cccnc23)c(-c2cc3c(cc2OC(F)F)NCCO3)n1 [Example 89, N-[3-[6-(difluoromethoxy)-3,4-dihydro-2H-1,4-benzoxazin-7-yl]-1-methyl-pyrazol-4-yl]pyrazolo[1,5-a]pyrimidine-3-carboxamide] | 0.12 | 0.1 | 7 | 
8 | CN(C)C(=O)Cn1cc(NC(=O)c2cnn3cccnc23)c(-c2cc3c(cc2OC(F)F)NCCO3)n1 [Example 100, N-[3-[6-(difluoromethoxy)-3,4-dihydro-2H-1,4-benzoxazin-7-yl]-1-[2-(dimethylamino)-2-oxo-ethyl]pyrazol-4-yl]pyrazolo[1,5-a]pyrimidine-3-carboxamide] | 0.18 | 0.34 | 39 | 
9 | CC1(C)CNc2cc(OC(F)F)c(-c3n[nH]cc3NC(=O)c3cnn4cccnc34)cc2S1 [Example 110, N-[3-[6-(difluoromethoxy)-2,2-dimethyl-3,4-dihydro-1,4-benzothiazin-7-yl]-1H-pyrazol-4-yl]pyrazolo[1,5-a]pyrimidine-3-carboxamide] | 0.08 | 0.05 | 10 | 
10 | CNC(=O)Cn1cc(NC(=O)c2cnn3cccnc23)c(-c2cc3c(cc2OC(F)F)NCCS3)n1 [Example 117, N-[3-[6-(difluoromethoxy)-3,4-dihydro-2H-1,4-benzothiazin-7-yl]-1-[2-(methylamino)-2-oxo-ethyl]pyrazol-4-yl]pyrazolo[1,5-a]pyrimidine-3-carboxamide] | 0.1 | 0.1 | 24 | 

More lines, main results first:

Row | Ki [1] [nM] | Ki [3] [nM] | Compound | IC50 ([2]; Homo sapiens, BEAS-2B) [nM] | IC50 [2] [nM]
11 | 0.18 | 0.13 | CNCCn1cc(NC(=O)c2cnn3cccnc23)c(-c2cc3c(cc2OC(F)F)NC(=O)CS3)n1 [Example 79, N-[3-[6-(difluoromethoxy)-3-oxo-4H-1,4-benzothiazin-7-yl]-1-[2-(methylamino)ethyl]pyrazol-4-yl]pyrazolo[1,5-a]pyrimidine-3-carboxamide] | 97 | 
12 | 0.12 | 0.11 | CNCCn1cc(NC(=O)c2cnn3cccnc23)c(-c2cc3c(cc2OC(F)F)NCCS3)n1 [Example 81, N-[3-[6-(difluoromethoxy)-3,4-dihydro-2H-1,4-benzothiazin-7-yl]-1-[2-(methylamino)ethyl]pyrazol-4-yl]pyrazolo[1,5-a]pyrimidine-3-carboxamide] | 7 | 
13 | 0.23 | 0.14 | CN(C)CCn1cc(NC(=O)c2cnn3cccnc23)c(-c2cc3c(cc2OC(F)F)NC(=O)CS3)n1 [Example 83, N-[3-[6-(difluoromethoxy)-3-oxo-4H-1,4-benzothiazin-7-yl]-1-[2-(dimethylamino)ethyl]pyrazol-4-yl]pyrazolo[1,5-a]pyrimidine-3-carboxamide] | 14 | 
14 | 0.19 | 0.12 | O=C(Nc1cn(C2COC2)nc1-c1cc2c(cc1OC(F)F)NCCO2)c1cnn2cccnc12 [Example 84, N-[3-[6-(difluoromethoxy)-3,4-dihydro-2H-1,4-benzoxazin-7-yl]-1-(oxetan-3-yl)pyrazol-4-yl]pyrazolo[1,5-a]pyrimidine-3-carboxamide] | 8 | 
15 | 1.53 | 1.02 | CN1CCC(Cn2cc(NC(=O)c3cnn4cccnc34)c(-c3cc4ccccc4cc3OC(F)F)n2)CC1 [Example 86, N-[3-[3-(difluoromethoxy)-2-naphthyl]-1-[(1-methyl-4-piperidyl)methyl]pyrazol-4-yl]pyrazolo[1,5-a]pyrimidine-3-carboxamide] | 31 | 
16 | 0.62 | 0.42 | CCn1cc(NC(=O)c2cnn3cccnc23)c(-c2cc3ccccc3cc2OC(F)F)n1 [Example 87, N-[3-[3-(difluoromethoxy)-2-naphthyl]-1-ethyl-pyrazol-4-yl]pyrazolo[1,5-a]pyrimidine-3-carboxamide] | 15 | 
17 | 0.07 | 0.07 | Cn1cc(NC(=O)c2cnn3cccnc23)c(-c2cc3c(cc2OC(F)F)NC(=O)CS3)n1 [Example 90, N-[3-[6-(difluoromethoxy)-3-oxo-4H-1,4-benzothiazin-7-yl]-1-methyl-pyrazol-4-yl]pyrazolo[1,5-a]pyrimidine-3-carboxamide] | 5 | 
18 | 4.03 | 1.85 | Cn1cc(NC(=O)c2cnn3cccnc23)c(-c2cc3sc(C(=O)N4CCNCC4)cc3cc2OC(F)F)n1 [Example 91, N-[3-[5-(difluoromethoxy)-2-(piperazine-1-carbonyl)benzothiophen-6-yl]-1-methyl-pyrazol-4-yl]pyrazolo[1,5-a]pyrimidine-3-carboxamide] | 308 | 
19 | 0.22 | 0.2 | COC(=O)Cn1cc(NC(=O)c2cnn3cccnc23)c(-c2cc3sc(C(N)=O)cc3cc2OC(F)F)n1 [Example 92, methyl 2-[3-[2-carbamoyl-5-(difluoromethoxy)benzothiophen-6-yl]-4-(pyrazolo[1,5-a]pyrimidine-3-carbonylamino)pyrazol-1-yl]acetate] | 92 | 
20 | 0.07 | 0.05 | CC1CNc2cc(OC(F)F)c(-c3n[nH]cc3NC(=O)c3cnn4cccnc34)cc2S1 (stereo not drawn) [Example 94, N-[3-[6-(difluoromethoxy)-2-methyl-3,4-dihydro-2H-1,4-benzothiazin-7-yl]-1H-pyrazol-4-yl]pyrazolo[1,5-a]pyrimidine-3-carboxamide] |  | 7
21 | 0.12 | 0.12 | CN(C)C(=O)Cn1cc(NC(=O)c2cnn3cccnc23)c(-c2cc3c(cc2OC(F)F)NCCS3)n1 [Example 99, N-[3-[6-(difluoromethoxy)-3,4-dihydro-2H-1,4-benzothiazin-7-yl]-1-[2-(dimethylamino)-2-oxo-ethyl]pyrazol-4-yl]pyrazolo[1,5-a]pyrimidine-3-carboxamide] | 24 | 
22 | 0.22 | 0.42 | CN(C)C(=O)Cn1cc(NC(=O)c2cnn3cccnc23)c(-c2cc3c(cc2OC(F)F)CCO3)n1 [Example 109, N-[3-[5-(difluoromethoxy)-2,3-dihydrobenzofuran-6-yl]-1-[2-(dimethylamino)-2-oxo-ethyl]pyrazol-4-yl]pyrazolo[1,5-a]pyrimidine-3-carboxamide] | 22 | 
23 | 0.91 | 0.36 | CC1(C)COc2cc(OC(F)F)c(-c3n[nH]cc3NC(=O)c3cnn4cccnc34)cc2C1=O [Example 115, N-[3-[7-(difluoromethoxy)-3,3-dimethyl-4-oxo-chroman-6-yl]-1H-pyrazol-4-yl]pyrazolo[1,5-a]pyrimidine-3-carboxamide] | 55 | 
24 | 0.25 | 0.4 | CNC(=O)Cn1cc(NC(=O)c2cnn3cccnc23)c(-c2cc3c(cc2OC(F)F)NCCO3)n1 [Example 116, N-[3-[6-(difluoromethoxy)-3,4-dihydro-2H-1,4-benzoxazin-7-yl]-1-[2-(methylamino)-2-oxo-ethyl]pyrazol-4-yl]pyrazolo[1,5-a]pyrimidine-3-carboxamide] | 42 | 
